Publication PMC9233675, “Ru(II) photocages enable precise control over enzyme activity with red light” (Nature Communications, 2022)
Where “and” joins values, the source holds several entries; their conditions need not be identical. Equal entries are not always repeated. Where two headings read alike, the source gives them in different places.

Key:
[1] = test system: CYP19A1; design: method as in PMID 9152599; details: cited from earlier work
[2] = Stability of complexes at 37 °C in the dark (HPLC, UV/Vis); assay type: physicochemical
Protocol: The stability of each complex was assessed over 24 h under aqueous conditions at 37 °C (Supplementary Figs. 12–15). […] Given the potency of the caged inhibitor, thermal stability is of critical importance, making complex 6 the preferred photocaged candidate.
Opti-MEM with 2% fetal bovine serum (right) at 37 °C in the dark over the course of 0 (blue line) to 24 h (black dashed line). Compounds were tested in triplicate (n = 3), the data for one replicate are presented. Complexes 4 and 5 slowly degraded in the experiment condition (see HPLC traces, Figures S13–14). The decrease in absorbance for complex 6 is explained by the slow aggregation of the compound in the 96-well plate.
(1 picture or pasted object on this page, not shown here)
Supplementary Figure 13. a HPLC chromatogram analysis of stability of 4 (50 µM in di-H2O) before (black dashed line, purity > 92 % ) and after incubation at 37 °C for 24 hours (red line). At 24 hours, 43 % of 4 was […]
Supplementary Figure 14. HPLC chromatogram analysis of stability of 5 (50 µM in di-H2O) before (black dashed line, purity > 97 %) and after incubation at 37 °C for 24 hours (red line). At 24 hours, 50 % of 5 was observed […]
Supplementary Figure 15. HPLC chromatogram analysis of stability of 6 (40 µM in di-H O : MeCN mixture (4:1), […]
MeCN was added to reduce the aggregation) before (black dashed line, purity > 99.5 %) and after incubation at 37 °C for 24 hours. At 24 hours, less than 2 % degradation was observed (calculated by area, detection wavelength = […]
Supplementary Figure 16. HPLC chromatogram analysis of stability of 6 (40 µM) in 5 % DMSO / di-H2O with a 100 μM GSH, b 100 μM imidazole and c acidic condition (pH = 1) after incubation at 37 °C for 72 hours. Less than […]
detection wavelength = 280 nm). […]
imidazole and c acidic condition (pH = 1) after incubation at 37 °C for 72 hours. d At 72 hours less than 7 % degradation was observed by HPLC at pH = 1 (calculated by area, detection wavelength = 280 nm). Compounds were tested in triplicate (n = 3), the data for one replicate are presented.

[3] = target: T1, CYP19A1 (Homo sapiens, UniProt P11511); experiment: In cell activity assay for CYP19A1 (dibenzylfluorescein conversion, HEK293 T-Rex cells); assay type: cell-based; details: concentrations up to 30 μM, in the dark and following irradiation to form 7
T1 sequence (P11511 1-503): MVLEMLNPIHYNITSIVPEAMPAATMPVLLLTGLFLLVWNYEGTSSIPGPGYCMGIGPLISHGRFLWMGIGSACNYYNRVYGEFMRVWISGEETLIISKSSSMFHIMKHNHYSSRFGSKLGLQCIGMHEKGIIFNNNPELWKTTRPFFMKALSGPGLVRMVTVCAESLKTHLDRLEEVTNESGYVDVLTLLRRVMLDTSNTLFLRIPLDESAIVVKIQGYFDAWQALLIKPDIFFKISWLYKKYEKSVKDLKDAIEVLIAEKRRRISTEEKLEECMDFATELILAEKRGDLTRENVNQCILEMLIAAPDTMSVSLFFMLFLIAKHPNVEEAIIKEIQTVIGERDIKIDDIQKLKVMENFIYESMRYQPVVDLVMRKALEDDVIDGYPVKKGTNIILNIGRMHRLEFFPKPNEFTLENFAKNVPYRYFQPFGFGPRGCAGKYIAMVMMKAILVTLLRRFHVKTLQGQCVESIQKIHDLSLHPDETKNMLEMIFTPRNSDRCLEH
Protocol: Thus, the activity against CYP19A1 was evaluated using a recently developed in-cell fluorometric assay.
REE or DBF was added as described above.

[4] = test system: HEK293 T-Rex cell line; experiment: Cellular viability (resazurin to resorufin, 72 h); assay type: cell-based, human; details: Supplementary Fig. 24d
Protocol: The cells were >70% viable at 72 h with 10 μM compound, as quantified by metabolically active cells determined by the conversion of resazurin to resorufin (Supplementary Figs. 18–20).
The parental HEK T-Rex cell line was maintained as above, in the absence of Zeocin. Compounds were serially diluted in media, and the cells were dosed from 0–30 μM compound, and then incubated at 37 °C (n = 3). […] The cells were incubated with the compound in the dark for 30 min prior to light exposure, using the same parameters as in the enzyme activity assay, and then treated as above.

[5] = Irradiation-induced 1O2 production (Singlet Oxygen Sensor Green assay); assay type: physicochemical; details: sheet S27; triplicate columns; DMSO control about 0.9
Source text: Some Ru(II) complexes can generate singlet oxygen when photoexcited, a feature that has been applied to the selective photoinactivation of proteins. In this approach, the Ru(II) system is conjugated to a peptide that is a specific ligand for the protein target; binding of the peptide to the protein ensures close proximity of the Ru(II) center and thus, upon photoexcitation, the generation of a high local concentration of singlet oxygen. […] As very little of this reactive oxygen species was generated, inactivation of the CYP enzymes by this process appears unlikely.
Supplementary Figure 27. Determination of irradiation-induced 1O2 production with 660 nm light (1 hr = 58.7 J/cm2)
using the Singlet Oxygen Sensor Green assay. […]

[6] = Stability of compounds in human liver microsomes; details: for Remaining, % (T=60min): human, liver microsomes
[7] = target: human isoform of CYP51; design: method as in PMID 23826084; details: cited from earlier work
[8] = target: fungal CYP51; details: read-out: Kd fungal CYP51; cited from earlier work
[9] = test system: CYP3A4; design: method as in PMID 23018626; details: cited from earlier work
[10] = Stability of compounds in rat liver microsomes
[11] = Stability of compounds in mouse liver microsomes
[12] = human, microsomes
[13] = rat, microsomes
[14] = mouse, microsomes
[15] = design: method as in Scifinder; details: ref Scifinder; cited from earlier work

CC(C)(C#N)c1cc(Cn2cncn2)cc(C(C)(C)C#N)c1 [Anastrozole, anastrozole]
selectivity for CYP19A1 over liver CYPs [1]: at least 500 fold

O=C([O-])c1cc2[n+](c3ccccc13)[Ru-4]13([n+]4ccccc4)([n+]4ccccc4-c4cccc([n+]41)-c1cccc[n+]13)[n+]1c-2cc(C(=O)[O-])c2ccccc21 [Compound 8, [Ru(tpy)(bca)(pyridine)]]
degradation at pH = 1 ([2]; 5 % DMSO / di-H2O, acidic condition (pH = 1), 37 °C, 72 hours): less than 7% | degradation over 72 h ([2]; Supplementary Fig. 17): < 7% | impact on any CYP (CYP19A1) [3]: no impact | effect on cell health [4]: no effect | irradiation-induced 1O2 production (Singlet Oxygen Sensor Green signal, relative) [5]: 1.034 and 0.94 and 1.135

O=C(O)Cc1ccccc1Nc1c(Cl)cccc1Cl [Diclofenac, reference compound]
Remaining, % (T=60min) [6]: 0.0%

CCCCCCOC(C)c1c(C)c2cc3nc(c4c5[nH]c(cc6nc(cc1[nH]2)C(C)=C6CC)c(C)c5C(=O)C4)[C@@H](CCC(=O)O)[C@@H]3C (some centres unmarked) [HPPH, reference compound]
irradiation-induced 1O2 production (Singlet Oxygen Sensor Green signal, relative) [5]: 4.8266 and 4.787 and 4.883

CC(=O)N1CCN(c2ccc(OCC3COC(Cn4ccnc4)(c4ccc(Cl)cc4Cl)O3)cc2)CC1 (centres unmarked) [Ketoconazole, ketoconazole]
Kd [7]: 0.042 µM | Kd [8]: 0.027 µM | IC50 [9]: […]

[Ru+2].c1ccc(-c2ccccn2)nc1.c1ccc(-c2ccccn2)nc1.c1ccc(-c2ccccn2)nc1 [Ru(bpy)3, reference compound]
irradiation-induced 1O2 production (Singlet Oxygen Sensor Green signal, relative) [5]: 4.994 and 4.917 and 5.133

C[C@]12CC[C@H]3[C@@H](CCC4=CC(=O)CC[C@@]43C)[C@@H]1CC[C@@H]2O [Testosterone, reference compound]
Remaining, % (NCF=60min) ([10]; rat liver microsomes, no co-factor (no NADPH)): 86.5% | Remaining, % (T=60min) ([10]; rat, liver microsomes): 0.8% | Remaining, % (NCF=60min) ([11]; mouse liver microsomes, no co-factor (no NADPH)): 91.3% | Remaining, % (T=60min) ([11]; mouse, liver microsomes): 2.3% | Remaining, % (NCF=60min) ([6]; human liver microsomes, no co-factor (no NADPH)): 82.5% | Remaining, % (T=60min) [6]: 3.6%

COc1ccc(/C=C/c2cc[n+]([Os-4]34([Cl])([n+]5ccccc5-c5cccc[n+]53)[n+]3ccccc3-c3cccc[n+]34)cn2)c(OC)c1.[Cl-] [[Os(bpy)2(2)Cl]Cl]
CLint(mic) [12]: < 9.6 µL/min/mg | T1/2 [12]: > 2.42 h | Remaining, % (NCF=60min) ([12]; 1 h): 107% | Remaining, % (T=60min) ([12]; 1 h): 78.4% | CLint(mic) [13]: 16.9 µL/min/mg | T1/2 [13]: 1.36 h | Remaining, % (NCF=60min) ([13]; 1 h): 91.8% | Remaining, % (T=60min) ([13]; 1 h): 56.5% | CLint(mic) [14]: < 9.6 µL/min/mg | T1/2 [14]: > 2.42 h | Remaining, % (NCF=60min) ([14]; 1 h): 75.9% | Remaining, % (T=60min) ([14]; 1 h): 71.8%

Cc1ccncc1 [methyl pyridine]
pKa [15]: 5.9

Cc1ccncn1 [methyl pyrimidine]
pKa [15]: 2.0
